Earlier results as cited in patent US20110155130A1, “Dronabinol Treatment for Migraines” (Unimed Pharmaceuticals, Inc., priority 2005, published 2011).

Settings: 5 mg to 20 mg oral doses of THC; randomized controlled clinical trials

## CCCCCc1cc(O)c2c(c1)OC(C)(C)[C@@H]1CCC(C)=C[C@@H]21 [THC, (6a R-trans)-6a,7,8,10a-tetrahydro-6,6,9-trimethyl-3-pentyl-6H-dibenzo[b,d]pyran-1-ol]
  effectiveness compared with codeine: as effective as 50 mg to 120 mg of codeine
